Measurements taken from PubChem BioAssay (NCI).
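Protocol summary: plate cells (96-well), add compound at 5 concentrations, incubate 48 h, interpolate endpoints linearly. At the GI50, growth is halved. At the TGI there is no net growth.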

Experiments:
Assay in all cases: growth of human tumour cells (NCI), 48 h; in the data active = GI50 below about 0.43 µM; inactive = the rest
786-0 renal = tested on: 786-0 renal
A498 renal = tested on: A498 renal
A549 NSCLC = tested on: A549 NSCLC
ACHN renal = tested on: ACHN renal
BT-549 breast = tested on: BT-549 breast
CAKI-1 renal = tested on: CAKI-1 renal
CCRF-CEM leukemia = tested on: CCRF-CEM leukemia
COLO 205 colon = tested on: COLO 205 colon
DU-145 prostate = tested on: DU-145 prostate
EKVX NSCLC = tested on: EKVX NSCLC
HCC-2998 colon = tested on: HCC-2998 colon
HCT-116 colon = tested on: HCT-116 colon
HCT-15 colon = tested on: HCT-15 colon
HL-60(TB) leukemia = tested on: HL-60(TB) leukemia
HOP-62 NSCLC = tested on: HOP-62 NSCLC
HOP-92 NSCLC = tested on: HOP-92 NSCLC
HS 578T breast = tested on: HS 578T breast
HT29 colon = tested on: HT29 colon
IGROV1 ovarian = tested on: IGROV1 ovarian
K-562 leukemia = tested on: K-562 leukemia
KM12 colon = tested on: KM12 colon
LOX IMVI melanoma = tested on: LOX IMVI melanoma
MCF7 breast = tested on: MCF7 breast
MDA-MB-231 breast = tested on: MDA-MB-231 breast
MDA-MB-435 = tested on: MDA-MB-435
MOLT-4 leukemia = tested on: MOLT-4 leukemia
NCI-H226 lung = tested on: NCI-H226 lung
NCI-H23 lung = tested on: NCI-H23 lung
NCI-H460 lung = tested on: NCI-H460 lung
NCI-H522 lung = tested on: NCI-H522 lung
NCI/ADR-RES ovarian = tested on: NCI/ADR-RES ovarian
OVCAR-3 ovarian = tested on: OVCAR-3 ovarian
OVCAR-5 ovarian = tested on: OVCAR-5 ovarian
OVCAR-8 ovarian = tested on: OVCAR-8 ovarian
PC-3 prostate = tested on: PC-3 prostate
RXF 393 renal = tested on: RXF 393 renal
SF-268 CNS = tested on: SF-268 CNS
SF-295 CNS = tested on: SF-295 CNS
SF-539 CNS = tested on: SF-539 CNS
SK-MEL-2 melanoma = tested on: SK-MEL-2 melanoma
SK-MEL-28 melanoma = tested on: SK-MEL-28 melanoma
SK-MEL-5 melanoma = tested on: SK-MEL-5 melanoma
SK-OV-3 ovarian = tested on: SK-OV-3 ovarian
SN12C renal = tested on: SN12C renal
SNB-19 CNS = tested on: SNB-19 CNS
SNB-75 CNS = tested on: SNB-75 CNS
SR leukemia = tested on: SR leukemia
SW-620 colon = tested on: SW-620 colon
T-47D breast = tested on: T-47D breast
TK-10 renal = tested on: TK-10 renal
U251 CNS = tested on: U251 CNS
UACC-257 melanoma = tested on: UACC-257 melanoma
UACC-62 melanoma = tested on: UACC-62 melanoma
UO-31 renal = tested on: UO-31 renal
M14 melanoma = tested on: M14 melanoma
MALME-3M melanoma = tested on: MALME-3M melanoma
OVCAR-4 ovarian = tested on: OVCAR-4 ovarian
RPMI-8226 leukemia = tested on: RPMI-8226 leukemia

CC(=O)O[C@@H]1C=CC(=O)C2(CC(=O)O[C@@H]2/C=C(\C)CCC=C(C)C)C1 (some centres not stated)
4770 nM: TGI (NCI-H226 lung)
4160 nM: TGI (KM12 colon)
1280 nM: TGI (HCT-15 colon)
743 nM: TGI (LOX IMVI melanoma)
2310 nM: TGI (SF-268 CNS)
1440 nM: TGI (SF-539 CNS)
2070 nM: TGI (U251 CNS)
3540 nM: TGI (BT-549 breast)
599 nM: TGI (MCF7 breast)
4070 nM: TGI (SF-295 CNS)
2300 nM: TGI (CAKI-1 renal)
2200 nM: TGI (NCI-H460 lung)
4490 nM: TGI (SK-OV-3 ovarian)
543 nM: TGI (CCRF-CEM leukemia)
7870 nM: TGI (EKVX NSCLC)
1810 nM: TGI (OVCAR-8 ovarian)
1600 nM: TGI (MDA-MB-435) | TGI (OVCAR-3 ovarian)
2830 nM: TGI (SNB-75 CNS)
73900 nM: TGI (HT29 colon)
2470 nM: TGI (IGROV1 ovarian)
4430 nM: TGI (SK-MEL-2 melanoma)
1080 nM: TGI (OVCAR-5 ovarian)
1190 nM: TGI (PC-3 prostate)
962 nM: TGI (RXF 393 renal)
inactive: GI50 (786-0 renal) 931 nM | GI50 (A498 renal) 1730 nM | GI50 (A549 NSCLC) 2040 nM | GI50 (ACHN renal) 1160 nM | GI50 (BT-549 breast) 1150 nM | GI50 (CAKI-1 renal) 744 nM | GI50 (COLO 205 colon) 2240 nM | GI50 (DU-145 prostate) 633 nM | GI50 (EKVX NSCLC) 3280 nM | GI50 (HCC-2998 colon) 601 nM | GI50 (HOP-62 NSCLC) 1360 nM | GI50 (HOP-92 NSCLC) 1590 nM | GI50 (HS 578T breast) 2540 nM | GI50 (HT29 colon) 529 nM | GI50 (IGROV1 ovarian) 965 nM | GI50 (K-562 leukemia) 449 nM | GI50 (KM12 colon) 1300 nM | GI50 (NCI-H226 lung) 623 nM | GI50 (NCI-H522 lung) 988 nM | GI50 (OVCAR-3 ovarian) 435 nM | GI50 (SF-268 CNS) 1050 nM | GI50 (SF-295 CNS) 1750 nM | GI50 (SF-539 CNS) 591 nM | GI50 (SK-MEL-2 melanoma) 1510 nM | GI50 (SK-MEL-28 melanoma) 2150 nM | GI50 (SK-MEL-5 melanoma) 1310 nM | GI50 (SK-OV-3 ovarian) 2000 nM | GI50 (SN12C renal) 997 nM | GI50 (SNB-19 CNS) 1600 nM | GI50 (SNB-75 CNS) 1330 nM | GI50 (SW-620 colon) 436 nM | GI50 (TK-10 renal) 1670 nM | GI50 (U251 CNS) 820 nM | GI50 (UACC-257 melanoma) 1030 nM | GI50 (UACC-62 melanoma) 1120 nM | GI50 (UO-31 renal) 1580 nM
2360 nM: TGI (UACC-62 melanoma)
2430 nM: TGI (ACHN renal)
873 nM: TGI (T-47D breast)
10300 nM: TGI (COLO 205 colon)
3580 nM: TGI (SNB-19 CNS)
1030 nM: TGI (MOLT-4 leukemia)
827 nM: TGI (NCI/ADR-RES ovarian)
3710 nM: TGI (TK-10 renal)
> 23400 nM: TGI (HS 578T breast)
31600 nM: TGI (SR leukemia)
active: GI50 (CCRF-CEM leukemia) 163 nM | GI50 (HCT-116 colon) 399 nM | GI50 (HCT-15 colon) 285 nM | GI50 (HL-60(TB) leukemia) 184 nM | GI50 (LOX IMVI melanoma) 229 nM | GI50 (MCF7 breast) 77.2 nM | GI50 (MDA-MB-231 breast) 405 nM | GI50 (MDA-MB-435) 369 nM | GI50 (MOLT-4 leukemia) 126 nM | GI50 (NCI-H23 lung) 365 nM | GI50 (NCI-H460 lung) 378 nM | GI50 (NCI/ADR-RES ovarian) 223 nM | GI50 (OVCAR-5 ovarian) 267 nM | GI50 (OVCAR-8 ovarian) 350 nM | GI50 (PC-3 prostate) 383 nM | GI50 (RXF 393 renal) 185 nM | GI50 (SR leukemia) 33.9 nM | GI50 (T-47D breast) 389 nM
3810 nM: TGI (A498 renal)
1330 nM: TGI (MDA-MB-231 breast) | TGI (NCI-H23 lung)
2600 nM: TGI (UACC-257 melanoma)
1990 nM: TGI (HCC-2998 colon)
3100 nM: TGI (SK-MEL-5 melanoma)
557 nM: TGI (HL-60(TB) leukemia)
3590 nM: TGI (UO-31 renal)
2260 nM: TGI (786-0 renal)
7790 nM: TGI (SK-MEL-28 melanoma)
3940 nM: TGI (HOP-92 NSCLC)
2380 nM: TGI (DU-145 prostate)
1710 nM: TGI (HCT-116 colon)
3400 nM: TGI (HOP-62 NSCLC)
2270 nM: TGI (SN12C renal)
4910 nM: TGI (A549 NSCLC)

COc1ccc([C@H]2c3cc(OC)c(OC)cc3C=C(C=O)C2CO)cc1OC (some centres not stated)
2810 nM: TGI (MDA-MB-435)
17900 nM: TGI (COLO 205 colon)
8890 nM: TGI (IGROV1 ovarian)
76300 nM: TGI (HCC-2998 colon)
43600 nM: TGI (KM12 colon)
4870 nM: TGI (OVCAR-3 ovarian)
17300 nM: TGI (HS 578T breast)
> 100000 nM: TGI (786-0 renal) | TGI (A498 renal) | TGI (A549 NSCLC) | TGI (ACHN renal) | TGI (BT-549 breast) | TGI (CAKI-1 renal) | TGI (CCRF-CEM leukemia) | TGI (EKVX NSCLC) | TGI (HCT-116 colon) | TGI (HCT-15 colon) | TGI (HL-60(TB) leukemia) | TGI (HOP-62 NSCLC) | TGI (HOP-92 NSCLC) | TGI (K-562 leukemia) | TGI (LOX IMVI melanoma) | TGI (M14 melanoma) | TGI (MCF7 breast) | TGI (MDA-MB-231 breast) | TGI (MOLT-4 leukemia) | TGI (NCI-H226 lung) | TGI (NCI-H23 lung) | TGI (NCI-H460 lung) | TGI (NCI/ADR-RES ovarian) | TGI (OVCAR-4 ovarian) | TGI (OVCAR-5 ovarian) | TGI (OVCAR-8 ovarian) | TGI (RPMI-8226 leukemia) | TGI (RXF 393 renal) | TGI (SF-268 CNS) | TGI (SF-539 CNS) | TGI (SK-MEL-28 melanoma) | TGI (SK-MEL-5 melanoma) | TGI (SK-OV-3 ovarian) | TGI (SN12C renal) | TGI (SNB-19 CNS) | TGI (SR leukemia) | TGI (SW-620 colon) | TGI (U251 CNS) | TGI (UACC-257 melanoma) | TGI (UACC-62 melanoma) | TGI (UO-31 renal)
7430 nM: TGI (MALME-3M melanoma)
21800 nM: TGI (DU-145 prostate)
inactive: GI50 (786-0 renal) 7150 nM | GI50 (A498 renal) 19000 nM | GI50 (A549 NSCLC) 52500 nM | GI50 (ACHN renal) 7530 nM | GI50 (BT-549 breast) > 100000 nM | GI50 (CAKI-1 renal) 3020 nM | GI50 (CCRF-CEM leukemia) 19000 nM | GI50 (COLO 205 colon) 3910 nM | GI50 (DU-145 prostate) 3510 nM | GI50 (EKVX NSCLC) 5290 nM | GI50 (HCC-2998 colon) 12100 nM | GI50 (HCT-116 colon) 5320 nM | GI50 (HCT-15 colon) 5030 nM | GI50 (HL-60(TB) leukemia) 3650 nM | GI50 (HOP-62 NSCLC) 4790 nM | GI50 (HOP-92 NSCLC) > 100000 nM | GI50 (HS 578T breast) 2720 nM | GI50 (IGROV1 ovarian) 2080 nM | GI50 (K-562 leukemia) 6030 nM | GI50 (KM12 colon) 2900 nM | GI50 (LOX IMVI melanoma) 7440 nM | GI50 (M14 melanoma) 4410 nM | GI50 (MALME-3M melanoma) 1840 nM | GI50 (MCF7 breast) 3730 nM | GI50 (MDA-MB-231 breast) 6740 nM | GI50 (MDA-MB-435) 914 nM | GI50 (MOLT-4 leukemia) > 100000 nM | GI50 (NCI-H226 lung) > 100000 nM | GI50 (NCI-H23 lung) 7150 nM | GI50 (NCI-H460 lung) 3510 nM | GI50 (NCI/ADR-RES ovarian) 23100 nM | GI50 (OVCAR-3 ovarian) 2090 nM | GI50 (OVCAR-4 ovarian) 7940 nM | GI50 (OVCAR-5 ovarian) 43000 nM | GI50 (OVCAR-8 ovarian) 6900 nM | GI50 (RPMI-8226 leukemia) 9220 nM | GI50 (RXF 393 renal) 3270 nM | GI50 (SF-268 CNS) 4740 nM | GI50 (SF-295 CNS) 1790 nM | GI50 (SF-539 CNS) 3330 nM | GI50 (SK-MEL-28 melanoma) 6620 nM | GI50 (SK-MEL-5 melanoma) 3510 nM | GI50 (SK-OV-3 ovarian) 4230 nM | GI50 (SN12C renal) 5700 nM | GI50 (SNB-19 CNS) 8560 nM | GI50 (SR leukemia) 4950 nM | GI50 (SW-620 colon) 3490 nM | GI50 (U251 CNS) 4420 nM | GI50 (UACC-257 melanoma) > 100000 nM | GI50 (UACC-62 melanoma) 4320 nM | GI50 (UO-31 renal) 3600 nM
5850 nM: TGI (SF-295 CNS)
